Measurements taken from the supplement of paper PMC9262897, “Low-cost anti-mycobacterial drug discovery using engineered E. coli” (Nature Communications, 2022).

Legend:
E. coli TESEC Mtb Alr = test: growth (OD600 after 10 h, mean); higher = more growth;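 also: E. coli lacking its native Alr, complemented by codon-optimized Mtb Alr under a feedback-controlled arabinose-inducible plasmid circuit, grown in defined medium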
Experimental: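 TESEC Mtb Alr E. coli grown in a two-dimensional dilution series of drug (µM) and arabinose (12 to 1e8 nM). Growth is read as OD600 after 10 h; values are means of 3 biological replicates.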

[1] = system: E. coli TESEC strain (Mtb target enzyme); test: growth (OD600 after 10 h); higher = more growth
Experimental: (§1)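 Chemical-genetic validation profiles: TESEC strains (Mtb Asd or DapB, arabinose-inducible) or the wild-type control grown in a two-dimensional dilution series of drug (µM) and arabinose. Growth is read as OD600 after 10 h in triplicate.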

[2] = system: E. coli wild-type control; test: growth (OD600 after 10 h); higher = more growth
Experimental: as §1

CC(C)c1ccc2oc3nc(N)c(C(=O)O)cc3c(=O)c2c1 [Amlexanox]
growth, E. coli TESEC Mtb Alr
Details	drug 15.62 µM	drug 31.25 µM	drug 62.5 µM	drug 125 µM	drug 250 µM
arabinose 12 nM	0.4	0.356	0.319	0.272	–
arabinose 24 nM	0.391	0.357	0.317	0.266	–
arabinose 48 nM	0.385	0.352	0.318	0.261	–
arabinose 95 nM	0.382	0.348	0.31	0.265	–
arabinose 191 nM	0.377	0.349	0.319	0.262	–
arabinose 381 nM	0.378	0.346	0.309	0.259	–
arabinose 763 nM	0.382	0.348	0.305	0.261	–
arabinose 1526 nM	0.386	0.352	0.304	0.259	0.264
arabinose 3052 nM	0.375	0.357	0.301	0.257	0.264
arabinose 6104 nM	0.367	0.336	0.29	0.262	0.266
arabinose 12207 nM	0.325	0.306	0.278	0.275	0.281
arabinose 24414 nM	0.282	0.276	0.274	0.285	–
arabinose 48828 nM	0.264	0.266	0.28	0.295	–
arabinose 97656 nM	0.254	0.261	0.28	0.289	–
arabinose 195312 nM	0.268	0.273	0.291	0.284	–
arabinose 390625 nM	0.289	0.298	0.305	0.277	–
arabinose 781250 nM	0.31	0.317	0.304	0.268	–
arabinose 1562500 nM	0.312	0.313	0.297	0.265	–
arabinose 3125000 nM	0.307	0.302	0.292	0.259	–
arabinose 6250000 nM	0.301	0.297	0.286	0.255	–
arabinose 12500000 nM	0.302	0.293	0.284	0.248	–
arabinose 25000000 nM	0.298	0.299	0.282	0.235	–
arabinose 50000000 nM	0.286	0.282	0.259	0.213	–
arabinose 100000000 nM	0.216	0.212	0.216	0.16	–

N[C@@H]1CONC1=O [D-cycloserine]
growth, E. coli TESEC Mtb Alr
Details	drug 7.81 µM	drug 15.62 µM	drug 31.25 µM	drug 62.5 µM	drug 125 µM
arabinose 12 nM	0.367	0.327	0.0519	0.0505	–
arabinose 24 nM	0.363	0.325	0.0523	0.0512	–
arabinose 48 nM	0.367	0.326	0.0519	0.0518	–
arabinose 95 nM	0.358	0.336	0.0543	0.0501	–
arabinose 191 nM	0.376	0.332	0.121	0.0494	–
arabinose 381 nM	0.373	0.348	0.254	0.05	–
arabinose 763 nM	0.382	0.365	0.305	0.0501	–
arabinose 1526 nM	0.38	0.373	0.349	0.131	0.0482
arabinose 3052 nM	0.367	0.373	0.386	0.29	0.0489
arabinose 6104 nM	0.357	0.356	0.411	0.348	0.0678
arabinose 12207 nM	0.329	0.328	0.375	0.378	0.251
arabinose 24414 nM	0.288	0.298	0.315	0.371	–
arabinose 48828 nM	0.285	0.291	0.29	0.341	–
arabinose 97656 nM	0.29	0.284	0.292	0.306	–
arabinose 195312 nM	0.306	0.3	0.311	0.31	–
arabinose 390625 nM	0.318	0.32	0.322	0.327	–
arabinose 781250 nM	0.307	0.304	0.312	0.32	–
arabinose 1562500 nM	0.282	0.283	0.29	0.294	–
arabinose 3125000 nM	0.269	0.264	0.272	0.276	–
arabinose 6250000 nM	0.253	0.247	0.25	0.252	–
arabinose 12500000 nM	0.237	0.234	0.248	0.239	–
arabinose 25000000 nM	0.225	0.229	0.227	0.231	–
arabinose 50000000 nM	0.195	0.204	0.199	0.204	–
arabinose 100000000 nM	0.154	0.163	0.16	0.16	–

Nc1nc2ccc(OC(F)(F)F)cc2s1 [Riluzole] (TESEC target enzyme: Mtb Asd)
growth
Details	drug 1.7 µM	drug 3.9 µM	drug 8.7 µM	drug 19.5 µM	drug 43.9 µM	drug 98.8 µM	drug 222.2 µM
[1], arabinose 15560 nM	0.165	0.155	–	–	–	–	–
[1], arabinose 28008 nM	0.133	0.157	–	–	–	–	–
[1], arabinose 50414 nM	0.166	0.157	–	–	–	–	–
[1], arabinose 90744 nM	0.192	0.171	–	–	–	–	–
[1], arabinose 163340 nM	0.22	0.199	–	–	–	–	–
[1], arabinose 294012 nM	0.261	0.239	–	–	–	–	–
[1], arabinose 529221 nM	0.271	0.263	–	–	–	–	–
[1], arabinose 952599 nM	0.28	0.312	–	–	–	–	–
[1], arabinose 1714678 nM	0.284	0.319	–	–	–	–	–
[1], arabinose 3086420 nM	0.246	0.237	–	–	–	–	–
[1], arabinose 5555556 nM	0.236	0.223	–	–	–	–	–
[1], arabinose 10000000 nM	0.215	0.224	–	–	–	–	–
[2], arabinose 15560 nM	0.226	0.226	0.232	0.219	0.202	0.188	–
[2], arabinose 28008 nM	0.2085	0.207	0.219	0.223	0.208	0.197	–
[2], arabinose 50414 nM	0.234	0.217	0.222	0.235	0.207	0.202	–
[2], arabinose 90744 nM	0.232	0.243	0.222	0.286	0.22	0.205	–
[2], arabinose 163340 nM	0.227	0.236	0.232	0.237	0.217	0.216	–
[2], arabinose 294012 nM	0.229	0.227	0.2601	0.231	0.221	0.216	–
[2], arabinose 529221 nM	0.227	0.236	0.226	0.208	0.221	0.231	–
[2], arabinose 952599 nM	0.2317	0.226	0.263	0.207	0.233	0.235	0.123
[2], arabinose 1714678 nM	0.195	0.2	0.235	0.193	0.233	0.213	0.115
[2], arabinose 3086420 nM	0.148	0.149	0.183	0.214	0.236	0.231	0.122
[2], arabinose 5555556 nM	0.154	0.157	0.196	0.157	0.171	0.19	0.126
[2], arabinose 10000000 nM	0.148	0.165	0.146	0.21	0.162	0.202	–
